Test system: DNA nanospheres prepared by using E. coli sequencing library
Experiment: Evaluation of blocking effect (incorporation and cleavage efficiency) on MGISEQ2000 sequencer
Format: biochemical
Settings: for Cleavage efficiency (EC): ratio of Cleavage efficiency values for testing nucleotide and comparative nucleotide, thpp reagent, 65° C. 1 min, dTTP analogue; for Incorporation efficiency (EI): ratio of Incorporation efficiency values for testing nucleotide and comparative nucleotide (standard cold dNTP), dTTP analogue as cold dNTP
Protocol: 1. Evaluation of Blocking Effect
For each test, only one of the nucleotide analogues cold dNTP of the invention (dTTP, dATP, dCTP, and dGTP) was used. For ease of presentation, only testing results for dTTP were provided in the following table 1 for each kind of 3′-OH modification.
Sequencing was conducted according to the operation protocol of MGISEQ2000 sequencer, using the above nucleotide substrates and MGISEQ-2000RS high-throughput sequencing kit (FCL SE50).
(1) Preparing DNA nanospheres by using E. coli sequencing library;
(2) Loading DNA nanospheres onto the MGISEQ2000 sequencing chip;
(3) Amounting the loaded sequencing chip onto the MGISEQ2000 sequencer and set the sequencing process;
(4) Performing Test Round 1: incorporating standard hot dNTP, taking photos for recording signal value, and then cleaving the blocking group with thpp reagent, 65° C. 1 min.
(5) Performing Test Round 2: incorporating standard cold dNTP, then incorporating standard hot dNTP, taking photos for recording signal value, and then cleaving blocking group with thpp reagent, 65° C. 1 min.
(6) Performing Test Round 3: incorporating standard hot dNTP, taking photos for recording signal value, and then cleaving blocking group with thpp reagent, 65° C. 1 min.
(7) Performing Test Round 4: incorporating nucleotide analogues cold dNTP of the invention (only one kind of cold dNTP incorporated for each test), then incorporating standard hot dNTP, taking photos for recording signal value, and then cleaving blocking group with thpp reagent, 65° C. 1 min.
(8) Performing Test Round 5: incorporating standard hot dNTP, taking photos for recording signal value.
(9) Evaluating Incorporation efficiency and Cleavage efficiency.
Equation for Calculating Incorporation Efficiency: […]
wherein: • EI (Incorporation efficiency) is the ratio of Incorporation efficiency values for testing nucleotide and comparative nucleotide; • C1 is signal value of Test Round 1; • C2 is signal value of Test Round 2; • C3 is signal value of Test Round 3; • C4 is signal value of Test Round 4;
Equation for Calculating Cleavage Efficiency: […]
wherein: • Ec (Cleavage efficiency) is the ratio of Cleavage efficiency values for testing nucleotide and comparative nucleotide; • EI is the ratio of Incorporation efficiency values for testing nucleotide and comparative nucleotide; • C3 is signal value of Test Round 3; • C5 is signal value of Test Round 5; • CGT is the signals of base C, base G and base T in Test Round 3.

| Structure (SMILES) | Cleavage efficiency (EC) | Incorporation efficiency (EI) |
| --- | --- | --- |
| Cc1cn([C@H]2CC(OC(=O)Cc3ccccc3CN=[N+]=[N-])[C@@H](COP(=O)(O)OP(=O)(O)OP(=O)(O)O)O2)c(=O)[nH]c1=O (stereo partly shown) | 89% | 95% |
| CCSSC(C)c1ccccc1C(=O)OC1C[C@H](n2cc(C)c(=O)[nH]c2=O)O[C@@H]1COP(=O)(O)OP(=O)(O)OP(=O)(O)O (stereo partly shown) | 110% | 100% |
| Cc1cn([C@H]2CC(OC(=O)c3occc3CN=[N+]=[N-])[C@@H](COP(=O)(O)OP(=O)(O)OP(=O)(O)O)O2)c(=O)[nH]c1=O (stereo partly shown) | 5% | 101% |
| Cc1cn([C@H]2CC(OC(=O)c3cccnc3C(C)N=[N+]=[N-])[C@@H](COP(=O)(O)OP(=O)(O)OP(=O)(O)O)O2)c(=O)[nH]c1=O (stereo partly shown) | 115% | 100% |
| Cc1cn([C@H]2CC(OC(=O)c3ccccc3C(C)SSC(C)C)[C@@H](COP(=O)(O)OP(=O)(O)OP(=O)(O)O)O2)c(=O)[nH]c1=O (stereo partly shown) | 103% | 95% |
| Cc1cn([C@H]2CC(OC(=O)c3ccccc3CN=[N+]=[N-])[C@@H](COP(=O)(O)OP(=O)(O)OP(=O)(O)O)O2)c(=O)[nH]c1=O (stereo partly shown) | 91% | 98% |
| Cc1cn([C@H]2CC(OC(=O)c3ccccc3CCN=[N+]=[N-])[C@@H](COP(=O)(O)OP(=O)(O)OP(=O)(O)O)O2)c(=O)[nH]c1=O (stereo partly shown) | Incorporation efficiency (EI) 100% Cleavage efficiency (EC) 100% | Incorporation efficiency (EI) 100% Cleavage efficiency (EC) 100% |
| COc1ccc(C(=O)OC2C[C@H](n3ccc(N)nc3=O)O[C@@H]2COP(=O)(O)OP(=O)(O)OP(=O)(O)O)c(C(C)SSC)c1 (stereo partly shown) | 101% | 104% |
| Cc1cn([C@H]2CC(OC(=O)Cc3ccccc3C(C)N=[N+]=[N-])[C@@H](COP(=O)(O)OP(=O)(O)OP(=O)(O)O)O2)c(=O)[nH]c1=O (stereo partly shown) | 91% | 98% |
| CSSC(C)c1ccccc1C(=O)OC1C[C@H](n2cc(C)c(=O)[nH]c2=O)O[C@@H]1COP(=O)(O)OP(=O)(O)OP(=O)(O)O (stereo partly shown) | 111% | 100% |
| Cc1cn([C@H]2CC(OC(=O)c3cccnc3C(C)(C)N=[N+]=[N-])[C@@H](COP(=O)(O)OP(=O)(O)OP(=O)(O)O)O2)c(=O)[nH]c1=O (stereo partly shown) | 110% | 95% |
| Cc1cn([C@H]2CC(OC(=O)c3ccc([N+](=O)[O-])cc3CN=[N+]=[N-])[C@@H](COP(=O)(O)OP(=O)(O)OP(=O)(O)O)O2)c(=O)[nH]c1=O (stereo partly shown) | 112% | 101% |
| Cc1cn([C@H]2CC(OC(=O)c3ccccc3C(C)N=[N+]=[N-])[C@@H](COP(=O)(O)OP(=O)(O)OP(=O)(O)O)O2)c(=O)[nH]c1=O (stereo partly shown) | 105% | 101% |
| COc1ccc(C(=O)OC2C[C@H](n3cc(C)c(=O)[nH]c3=O)O[C@@H]2COP(=O)(O)OP(=O)(O)OP(=O)(O)O)c(C(C)N=[N+]=[N-])c1 (stereo partly shown) | 98% | 101% |
| CSSC(C)c1cc(NC(C)=O)ccc1C(=O)OC1C[C@H](n2cc(C)c(=O)[nH]c2=O)O[C@@H]1COP(=O)(O)OP(=O)(O)OP(=O)(O)O (stereo partly shown) | 98% | 100% |
| Cc1cn([C@H]2CC(OC(=O)CCCN=[N+]=[N-])[C@@H](COP(=O)(O)OP(=O)(O)OP(=O)(O)O)O2)c(=O)[nH]c1=O (stereo partly shown) | 36% | 95% |
| Cc1cn([C@H]2CC(OC(=O)c3ccccc3C(C)SSCC(C)C)[C@@H](COP(=O)(O)OP(=O)(O)OP(=O)(O)O)O2)c(=O)[nH]c1=O (stereo partly shown) | 98% | 90% |

Reference: US20240067673A1, “MODIFIED NUCLEOSIDE OR NUCLEOTIDE” (BIG SHENZHEN, priority 2020, published 2024)
